Experimental data from the NIST ThermoML archive (doi:10.1021/je060419q).

Conditions: Transpiration method

CC(O)CCO (stereo not drawn) [1,3-butanediol]
Liquid
Conditions	vapor or sublimation pressure [kPa]
288.3 K	0.00139
290.3 K	0.00168
292.9 K	0.00235
303.5 K	0.00651
308.3 K	0.00994
311.3 K	0.01301
314.3 K	0.01723
317.3 K	0.02182
320.3 K	0.02852
323.3 K	0.03664
326.3 K	0.04618
329.3 K	0.05855
332.3 K	0.07427

CC(CO)CO [2-methyl-1,3-propanediol]
Liquid
Conditions	vapor or sublimation pressure [kPa]
297.3 K	0.00204
300.4 K	0.00285
303.4 K	0.00364
306.4 K	0.0049
309.4 K	0.00661
312.4 K	0.00841
312.5 K	0.00861
314.5 K	0.00996
316.4 K	0.01205
318.5 K	0.0141
319.5 K	0.01551
321.4 K	0.01842
322.5 K	0.01984
323.5 K	0.02169
323.6 K	0.02202
326.4 K	0.02689
326.6 K	0.02817
328.5 K	0.03259
328.6 K	0.03396
331.4 K	0.04115
333.4 K	0.0469
336.3 K	0.05931
338.6 K	0.07262
341.4 K	0.08656
342.6 K	0.09448
343.5 K	0.1068
347.6 K	0.1379
349.3 K	0.1589
352.5 K	0.1921
355.4 K	0.2407
357.5 K	0.2643

CC(C)(CO)CO [2,2-dimethyl-1,3-propanediol]
Conditions	vapor or sublimation pressure [kPa]
283.9 K, Crystal 2	0.00029
288.5 K, Crystal 2	0.00052
291.2 K, Crystal 2	0.00074
295.2 K, Crystal 2	0.00119
298.4 K, Crystal 2	0.00174
301.7 K, Crystal 2	0.00261
304.7 K, Crystal 2	0.00367
307.9 K, Crystal 2	0.00535
309.4 K, Crystal 2	0.00615
311.3 K, Crystal 2	0.00735
314.3 K, Crystal 1	0.01057
317.3 K, Crystal 1	0.01416
320.2 K, Crystal 1	0.01849
323.4 K, Crystal 1	0.02447
326.4 K, Crystal 1	0.03147
329.4 K, Crystal 1	0.04056
332.3 K, Crystal 1	0.05153
335.3 K, Crystal 1	0.06721
338.2 K, Crystal 1	0.08442
341.2 K, Crystal 1	0.1056
344.2 K, Crystal 1	0.1314
347.2 K, Crystal 1	0.1654

CC(O)CC(C)O (stereo not drawn) [2,4-pentanediol]
Liquid
Conditions	vapor or sublimation pressure [kPa]
297.2 K	0.0048
300.2 K	0.00645
303.2 K	0.0085
306.2 K	0.0111
309.2 K	0.01453
312.2 K	0.01892
315.3 K	0.0239
318.4 K	0.03119
321.4 K	0.04095
324.4 K	0.05507
327.5 K	0.07024
330.5 K	0.08735
333.4 K	0.1096
336.5 K	0.1376
339.2 K	0.1648
344.4 K	0.2419
347.3 K	0.2929

OCCCO [propan-1,3-diol]
Liquid
Conditions	vapor or sublimation pressure [kPa]
293.5 K	0.00186
303.2 K	0.00447
309.3 K	0.00788
312.2 K	0.00997
315.3 K	0.01329
318.4 K	0.01659
321.3 K	0.02168
324.3 K	0.02764
327.3 K	0.03558
330.3 K	0.04372
333.5 K	0.05556
336.4 K	0.06842
339.4 K	0.08464
342.3 K	0.1053

CC(O)CC(C)(C)O (stereo not drawn) [2-methyl-2,4-pentanediol]
Liquid
Conditions	vapor or sublimation pressure [kPa]
285.2 K	0.0025
287.9 K	0.00333
291.2 K	0.00474
294.2 K	0.00648
297.2 K	0.00858
300.2 K	0.01147
303.2 K	0.01471
306.5 K	0.01997
309.4 K	0.02565
312.5 K	0.03274
315.2 K	0.04092
318.2 K	0.05208
321.2 K	0.06475
323.3 K	0.07752
326.3 K	0.09448
329.4 K	0.1239
